These molecules were tested on Rattus norvegicus (assay: Antiinflammatory activity in carrageenan induced rat at assessed as reduction in paw edema 50 mg/kg, po relative to control).
Assay type: functional
Parameters: scale not given: the % may be the effect or the level left
CC(C)c1ccc(/C=C/C(=O)NN2C(=O)CC2c2nc3ccc(Br)cc3c(=O)n2-c2ccccc2)cc1 (configuration not stated) showed an Activity of 10.28%. Molecule O=c1c2cc(Br)ccc2nc(CBr)n1-c1cccc(Cl)c1 has an Activity of 10.28%. Molecule COc1ccc(/C=C/C(=O)NN2C(=O)CC2c2nc3ccc(Br)cc3c(=O)n2-c2ccccc2)cc1 (configuration not stated) has an Activity of 10.28%. For COc1ccc(/C=C/C(=O)NNCc2nc3ccc(Br)cc3c(=O)n2-c2ccccc2)cc1, the Activity was 10.28%. O=C(/C=C/c1ccccc1)NNCc1nc2ccccc2c(=O)n1-c1ccccc1Cl showed an Activity of 10.28%. Molecule COc1ccccc1-n1c(CNNC(C)=O)nc2ccccc2c1=O has an Activity of 10.28%. With CC(C)c1ccc(/C=C/C(=O)NN2C(=O)CC2c2nc3ccccc3c(=O)n2-c2ccccc2Cl)cc1 (configuration not stated) the Activity was 10.28%. O=C(/C=C/c1ccccc1)NN1C(=O)CC1c1nc2ccc(Br)cc2c(=O)n1-c1ccccc1 (configuration not stated) showed an Activity of 10.28%. COc1ccccc1-n1c(CNNC(=O)/C=C/c2ccc(C(C)C)cc2)nc2ccccc2c1=O gave an Activity of 10.28%. With COc1cc(/C=C/C(=O)NNCc2nc3ccc(Br)cc3c(=O)n2-c2cccc(Cl)c2)ccc1O the Activity was 10.28%. CC(C)c1ccc(/C=C/C(=O)NN2C(=O)CC2c2nc3ccc(Br)cc3c(=O)n2-c2cccc(Cl)c2)cc1 (configuration not stated) showed an Activity of 10.28%. For COc1cc(/C=C/C(=O)NN2C(=O)CC2c2nc3ccccc3c(=O)n2-c2ccccc2Cl)ccc1O (configuration not stated), the Activity was 10.28%. With CC(=O)NNCc1nc2ccc(Br)cc2c(=O)n1-c1ccccc1 the Activity was 10.28%. Molecule COc1ccccc1-n1c(CNN)nc2ccccc2c1=O has an Activity of 10.28%. Work on COc1cc(/C=C/C(=O)NNCc2nc3ccccc3c(=O)n2-c2ccccc2Cl)ccc1O yielded an Activity of 10.28%. Work on O=C(/C=C/c1ccccc1)NN1C(=O)CC1c1nc2ccc(Br)cc2c(=O)n1-c1cccc(Cl)c1 (configuration not stated) yielded an Activity of 10.28%. With COc1ccccc1-n1c(CBr)nc2ccccc2c1=O the Activity was 10.28%. COc1cc(/C=C/C(=O)NNCc2nc3ccc(Br)cc3c(=O)n2-c2ccccc2)ccc1O showed an Activity of 10.28%. COc1cc(/C=C/C(=O)NN2C(=O)CC2c2nc3ccc(Br)cc3c(=O)n2-c2ccccc2)ccc1O (configuration not stated) showed an Activity of 10.28%. For COc1cc(/C=C/C(=O)NN2C(=O)CC2c2nc3ccccc3c(=O)n2-c2ccccc2OC)ccc1O (configuration not stated), the Activity was 10.28%. COc1cc(/C=C/C(=O)NNCc2nc3ccccc3c(=O)n2-c2ccccc2OC)ccc1O showed an Activity of 10.28%. In the case of COc1ccc(/C=C/C(=O)NN2C(=O)CC2c2nc3ccc(Br)cc3c(=O)n2-c2cccc(Cl)c2)cc1 (configuration not stated), the Activity is reported as 10.28%. NNCc1nc2ccc(Br)cc2c(=O)n1-c1cccc(Cl)c1 was tested, and the Activity was 10.28%. O=c1c2ccccc2nc(CBr)n1-c1ccccc1Cl showed an Activity of 10.28%. For NNCc1nc2ccc(Br)cc2c(=O)n1-c1ccccc1, the Activity was 10.28%. For COc1cc(/C=C/C(=O)NN2C(=O)CC2c2nc3ccc(Br)cc3c(=O)n2-c2cccc(Cl)c2)ccc1O (configuration not stated), the Activity was 10.28%. CC(C)c1ccc(/C=C/C(=O)NNCc2nc3ccc(Br)cc3c(=O)n2-c2cccc(Cl)c2)cc1 gave an Activity of 10.28%. CC(=O)NNCc1nc2ccccc2c(=O)n1-c1ccccc1Cl gave an Activity of 10.28%. CC(=O)NNCc1nc2ccc(Br)cc2c(=O)n1-c1cccc(Cl)c1 was tested, and the Activity was 10.28%. Work on CC(C)c1ccc(/C=C/C(=O)NNCc2nc3ccc(Br)cc3c(=O)n2-c2ccccc2)cc1 yielded an Activity of 10.28%. For COc1ccccc1-n1c(C2CC(=O)N2NC(=O)/C=C/c2ccc(C(C)C)cc2)nc2ccccc2c1=O (configuration not stated), the Activity was 10.28%. Molecule O=c1c2cc(Br)ccc2nc(CBr)n1-c1ccccc1 has an Activity of 10.28%. In the case of O=C(/C=C/c1ccccc1)NN1C(=O)CC1c1nc2ccccc2c(=O)n1-c1ccccc1Cl (configuration not stated), the Activity is reported as 10.28%. Work on COc1ccc(/C=C/C(=O)NN2C(=O)CC2c2nc3ccccc3c(=O)n2-c2ccccc2Cl)cc1 (configuration not stated) yielded an Activity of 10.28%. NNCc1nc2ccccc2c(=O)n1-c1ccccc1Cl gave an Activity of 10.28%. With COc1ccc(/C=C/C(=O)NNCc2nc3ccc(Br)cc3c(=O)n2-c2cccc(Cl)c2)cc1 the Activity was 10.28%. In the case of COc1ccc(/C=C/C(=O)NNCc2nc3ccccc3c(=O)n2-c2ccccc2Cl)cc1, the Activity is reported as 10.28%.
